Results published in patent publication US12612416B2, “Modulators of cystic fibrosis transmembrane conductance regulator” (VERTEX PHARMACEUTICALS INCORPORATED, priority 2020, dated 2026).
Like-named read-outs stand apart in the source and are kept apart here.

Experiments:
[1] = 13-membered ring
[2] = molecular target: CFTR-mediated chloride transport in human intestinal epithelial enteroid cells (Homo sapiens, UniProt P13569); experiment: Membrane potential dye, Enteroid Assay B; format: cell-based; details: for Ent. B Max Activity: % of chloride transport of triple combination control: 1 μM (14S)-8-[3-(2-{Dispiro[2.0.2.1]heptan-7-yl}ethoxy)-1H-pyrazol-1-yl]-12,12-dimethyl-...-2,2,4-trione, 3 μM tezacaftor, 300 nM acute ivacaftor; for EC50: enteroid cells, 18-24 hours incubation, acute 10 μM forskolin and 300 nM ivacaftor, read-out: Ent. B EC50
Chain of CFTR-mediated chloride transport in human intestinal epithelial enteroid cells (P13569 with tags, fused parts or gaps DEL508-508): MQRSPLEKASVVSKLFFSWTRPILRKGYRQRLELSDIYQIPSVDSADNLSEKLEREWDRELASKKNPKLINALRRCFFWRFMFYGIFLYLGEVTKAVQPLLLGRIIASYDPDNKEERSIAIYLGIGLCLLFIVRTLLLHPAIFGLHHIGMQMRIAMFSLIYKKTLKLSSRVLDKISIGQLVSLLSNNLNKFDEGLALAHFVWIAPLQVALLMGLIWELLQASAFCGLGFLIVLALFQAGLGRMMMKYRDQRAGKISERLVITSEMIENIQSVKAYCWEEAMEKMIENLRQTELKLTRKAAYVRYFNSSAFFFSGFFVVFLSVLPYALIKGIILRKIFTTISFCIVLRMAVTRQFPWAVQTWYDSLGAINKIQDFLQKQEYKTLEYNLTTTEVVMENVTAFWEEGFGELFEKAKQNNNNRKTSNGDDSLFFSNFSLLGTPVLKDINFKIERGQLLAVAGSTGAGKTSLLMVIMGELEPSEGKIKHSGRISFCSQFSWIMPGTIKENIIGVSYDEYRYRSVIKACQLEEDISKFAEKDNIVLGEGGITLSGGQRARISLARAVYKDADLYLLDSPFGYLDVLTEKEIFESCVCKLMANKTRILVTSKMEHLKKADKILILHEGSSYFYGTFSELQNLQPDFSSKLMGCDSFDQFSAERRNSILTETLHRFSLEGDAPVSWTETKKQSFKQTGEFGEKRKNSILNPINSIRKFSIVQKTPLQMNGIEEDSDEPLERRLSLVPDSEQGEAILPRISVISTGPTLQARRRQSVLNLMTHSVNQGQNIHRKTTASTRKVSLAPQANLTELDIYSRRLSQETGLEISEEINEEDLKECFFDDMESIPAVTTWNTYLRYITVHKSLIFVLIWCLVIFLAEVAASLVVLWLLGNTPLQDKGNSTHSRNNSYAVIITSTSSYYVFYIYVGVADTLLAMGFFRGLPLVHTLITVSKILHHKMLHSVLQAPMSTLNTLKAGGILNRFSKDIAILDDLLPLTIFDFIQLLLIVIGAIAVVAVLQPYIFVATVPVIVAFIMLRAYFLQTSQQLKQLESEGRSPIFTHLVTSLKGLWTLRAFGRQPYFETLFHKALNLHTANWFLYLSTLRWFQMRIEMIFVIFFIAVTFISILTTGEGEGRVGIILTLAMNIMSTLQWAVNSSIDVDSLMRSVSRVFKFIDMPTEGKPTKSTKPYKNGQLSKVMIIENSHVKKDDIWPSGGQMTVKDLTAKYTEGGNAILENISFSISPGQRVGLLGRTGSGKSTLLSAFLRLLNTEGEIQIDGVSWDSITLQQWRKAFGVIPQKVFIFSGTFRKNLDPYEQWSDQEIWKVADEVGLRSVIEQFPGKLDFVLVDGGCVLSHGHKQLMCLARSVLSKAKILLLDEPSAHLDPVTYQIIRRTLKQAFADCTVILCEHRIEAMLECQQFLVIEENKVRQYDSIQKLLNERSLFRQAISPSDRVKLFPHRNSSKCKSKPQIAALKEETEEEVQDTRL
Description: Base medium (ADF+++) consisted of Advanced DMEM/Ham's F12, 2 mM Glutamax, 10 mM HEPES, […] penicillin/streptomycin.
Intestinal enteroid maintenance medium (IEMM) consisted of ADF+++, 1×B27 supplement, 1×N2 supplement, 1.25 mM N-acetyl cysteine, 10 mM Nicotinamide, 50 ng/mL hEGF, 10 nM Gastrin, 1 μg/mL hR-spondin-1, 100 ng/mL hNoggin, TGF-b type 1 inhibitor A-83-01, 100 μg/mL Primocin, 10 μM P38 MAPK inhibitor SB202190.
Bath 1 Buffer consisted of 1 mM MgCl2, 160 mM NaCl, 4.5 mM KCl, 10 mM HEPES, 10 mM Glucose, 2 mM CaCl2).
Chloride Free Buffer consisted of 1 mM Magnesium Gluconate, 2 mM Calcium Gluconate, 4.5 mM Potassium Gluconate, 160 mM Sodium Gluconate, 10 mM HEPES, 10 mM Glucose.
BathI Dye Solution consisted of Bath 1 Buffer, 0.04% Pluronic F127, 20 μM Methyl Oxonol, 30 μM CaCCinh-A01, 30 μM Chicago Sky Blue.
Chloride Free Dye Solution consisted of Chloride Free Buffer, 0.04% Pluronic F127, 20 μM Methyl Oxonol, 30 μM CaCCinh-A01, 30 μM Chicago Sky Blue.
Chloride Free Dye Stimulation Solution consisted of Chloride Free Dye Solution, 10 μM forskolin, 100 μM IBMX, and 300 nM Compound III.
Human intestinal epithelial enteroid cells were obtained from the Hubrecht Institute for Developmental Biology and Stem Cell Research, Utrecht, The Netherlands and expanded in T-Flasks as previously described (Dekkers J F, Wiegerinck C L, de Jonge H R, Bronsveld I, Janssens H M, de Winter-de Groot K M, Brandsma A M, de Jong N W M, Bijvelds M J C, Scholte B J, Nieuwenhuis E E S, van den Brink S, Clevers H, van der Ent C K, Middendorp S and M Beekman J M. A functional CFTR assay using primary cystic fibrosis intestinal organoids. Nat Med. 2013 July; 19(7):939-45.).
Cells were recovered in cell recovery solution, collected by centrifugation at 650 rpm for 5 minutes at 4° C., resuspended in TrypLE and incubated for 5 minutes at 37° C. Cells were then collected by centrifugation at 650 rpm for 5 minutes at 4° C. and resuspended in IEMM containing 10 μM ROCK inhibitor (RI). The cell suspension was passed through a 40 μm cell strainer and resuspended at 1×10^6 cells/mL in IEMM containing 10 μM RI. Cells were seeded at 5000 cells/well into multi-well plates and incubated for overnight at 37° C., 95% humidity and 5% CO2 prior to assay.
Enteroid cells were incubated with test compound in IEMM for 18-24 hours at 37° C., 95% humidity, and 5% C02. […] Briefly, cells were washed 5 times in Bath 1 Buffer. Bath 1 Dye Solution was added and the cells were incubated for 25 minutes at room temperature. Following dye incubation, cells were washed 3 times in Chloride Free Dye Solution. Chloride transport was initiated by addition of Chloride Free Dye Stimulation Solution and the fluorescence signal was read for 15 minutes. […] Chloride transport was then expressed as a percentage of the chloride transport following treatment with 1 μM (14S)-8-[3-(2-{Dispiro[2.0.2.1]heptan-7-yl}ethoxy)-1H-pyrazol-1-yl]-12,12-dimethyl-2λ^6-thia-3,9,11,18,23-pentaazatetracyclo[17.3.1.111,14.05,10]tetracosa-1(22),5,7,9,19(23),20-hexaene-2,2,4-trione, 3 μM (R)-1-(2,2-difluorobenzo[d][1,3]dioxol-5-yl)-N-(1-(2,3-dihydroxypropyl)-6-fluoro-2-(1-hydroxy-2-methylpropan-2-yl)-1H-indol-5-yl)cyclopropanecarboxamide and 300 nM acute N-[2,4-bis(1,1-dimethylethyl)-5-hydroxyphenyl]-1,4-dihydro-4-oxoquinoline-3-carboxamide triple combination control (% Activity).

Compound	Ent. B Max Activity [2]	EC50 [2] [nM]	other results
COC(=O)C1CC2(C1)CC(N1C(=O)c3cccc(c3)S(=O)(=O)Nc3nc(cc(-c4c(C)cccc4C)n3)CC[C@H]1CC(C)(C)C)C2 (stereo partly shown)			ring closure, yield after HPLC ([1]; from COC(=O)C1CC2(CC(N[C@@H](CCc3cc(-c4c(C)cccc4C)nc(NS(=O)(=O)c4cccc(C(=O)O)c4)n3)CC(C)(C)C)C2)C1, amide bond, CDMT/NMM, DMF, 48.6 mM, 18.0 h): 80%
COc1c2nc(nc1-c1c(C)cccc1C)NS(=O)(=O)c1cccc(c1)C(=O)N(Cc1cncc(N(C)C3CCC3)n1)[C@H](CC(C)(C)C)CC2			ring closure, yield after HPLC ([1]; from COc1c(CC[C@@H](CC(C)(C)C)NCc2cncc(N(C)C3CCC3)n2)nc(NS(=O)(=O)c2cccc(C(=O)O)c2)nc1-c1c(C)cccc1C, amide bond, CDMT/NMM, DMF, 13.3 mM, 72.5 h): 33%
Cc1cccc(C)c1-c1cc2nc(n1)NS(=O)(=O)c1cccc(c1)C(=O)N1Cc3cc(C(C)(C)C)ccc3[C@@H](O2)[C@H]1CC(C)C			ring closure, yield after HPLC ([1]; from Cc1cccc(C)c1-c1cc(O[C@@H]2c3ccc(C(C)(C)C)cc3CN[C@@H]2CC(C)C)nc(NS(=O)(=O)c2cccc(C(=O)O)c2)n1, amide bond, HATU/NaOtBu, THF/DMF, 25.0 °C, 3 steps): 1%
Cc1cccc(C)c1-c1cc2nc(n1)NS(=O)(=O)c1cccc(c1)C(=O)N1Cc3cc(C(C)(C)C)ccc3[C@H](O2)[C@H]1CC(C)C			ring closure, yield after HPLC ([1]; from Cc1cccc(C)c1-c1cc(O[C@H]2c3ccc(C(C)(C)C)cc3CN[C@@H]2CC(C)C)nc(NS(=O)(=O)c2cccc(C(=O)O)c2)n1, amide bond, HATU/NaOtBu, THF/DMF, 80.1 mM, 25.0 °C, 3 steps): 27%
Cc1cccc(C)c1-c1cc2nc(n1)NS(=O)(=O)c1cccc(c1)C(=O)O[C@H]1c3ccc(C(C)(C)C)cc3CN2[C@@H]1CC(C)C			ring closure, yield after HPLC ([1]; from Cc1cccc(C)c1-c1cc(N2Cc3cc(C(C)(C)C)ccc3[C@H](O)[C@H]2CC(C)C)nc(NS(=O)(=O)c2cccc(C(=O)O)c2)n1, ester bond, HATU/NaOtBu, THF/DMF, 25.0 °C, 3 steps): 4%
Cc1cccc(C)c1-c1nc2nc(c1C)OCCNC(=O)c1cccc(c1)S(=O)(=O)N2			ring closure, yield after HPLC ([1]; from Cc1cccc(C)c1-c1nc(NS(=O)(=O)c2cccc(C(=O)O)c2)nc(OCCN)c1C, amide bond, HATU/DIEA, DMF, 50.7 mM, 25.0 °C): 23%
Cc1cccc(C)c1-c1cc2nc(n1)NS(=O)(=O)c1cccc(c1)C(=O)N[C@H](CC(C)C)CC2 [Compound 14]	+++ (+++ is >60%)	< 1000	
Cc1cccc(C)c1-c1cc2nc(n1)NS(=O)(=O)c1cccc(n1)C(=O)N(C1CC3(CC3)C1)[C@H](CC(C)C)CC2 [Compound 15]	++ (++ is 30-60%)	< 1000	
Cc1cccc(C)c1-c1cc2nc(n1)NS(=O)(=O)c1cccc(c1)C(=O)OC[C@@H](CC(C)(C)C)N2c1ccnn1C [Compound 29]	+ (+ is <30%)		
Cc1cccc(C)c1-c1cc2nc(n1)NS(=O)(=O)c1cccc(c1)C(=O)OC[C@@H](CC(C)(C)C)N2Cc1nccc(C(F)(F)F)n1 [Compound 32]	+ (+ is <30%)		

Continued, in another order:

Ent. B Max Activity [2]	EC50 [2] [nM]	Compound	other results
+++ (+++ is >60%)	< 1000	Cc1cccc(C)c1-c1cc2cc(n1)NS(=O)(=O)c1cccc(c1)C(=O)N(C1CC3(CC3)C1)[C@H](CC(C)C)CC2 [Compound 3, (11S)-6-(2,6-Dimethylphenyl)-11-isobutyl-2,2-dioxo-12-spiro[2.3]hexan-5-yl-2 λ6-thia-3,5,12-triazatricyclo[12.3.1.14,8]nonadeca-1(18),4(19),5,7,14,16-hexaen-13-one]	ring closure, yield after HPLC ([1]; from Cc1cccc(C)c1-c1cc(CC[C@@H](CC(C)C)NC2CC3(CC3)C2)cc(NS(=O)(=O)c2cccc(C(=O)O)c2)n1, amide bond, HATU/DIEA, DMF, 26.7 mM, 25.0 °C, 0.25 h): 19%
+++ (+++ is >60%)	< 1000	Cc1cccc(C)c1-c1nc2nc(c1F)CC[C@@H](CC(C)C)N(C1CC3(CC3)C1)C(=O)c1cccc(c1)S(=O)(=O)N2 [Compound 4, (11S)-6-(2,6-Dimethylphenyl)-7-fluoro-11-isobutyl-2,2-dioxo-12-spiro[2.3]hexan-5-yl-2 λ6-thia-3,5,12,19-tetrazatricyclo[12.3.1.14,8]nonadeca-1(18),4(19),5,7,14,16-hexaen-13-one]	ring closure, yield after HPLC ([1]; from Cc1cccc(C)c1-c1nc(NS(=O)(=O)c2cccc(C(=O)O)c2)nc(CC[C@@H](CC(C)C)NC2CC3(CC3)C2)c1F, amide bond, HATU/DIEA, NMP, 100.9 mM, 25.0 °C, 20.0 h): 30%
+++ (+++ is >60%)	< 1000	COCCN1CCC2(CC1)CC(N1C(=O)c3cccc(c3)S(=O)(=O)Nc3nc(cc(-c4c(C)cccc4C)n3)CC[C@H]1CC(C)C)C2 [Compound 9, (11S)-6-(2,6-Dimethylphenyl)-11-isobutyl-12-[7-(2-methoxyethyl)-7-azaspiro[3.5]nonan-2-yl]-2,2-dioxo-2λ6-thia-3,5,12,19-tetrazatricyclo[12.3.1.14,8]nonadeca-1(18),4(19),5,7,14,16-hexaen-13-one]	
+++ (+++ is >60%)	1000 to 3000	Cc1cccc(C)c1-c1cc2nc(n1)NS(=O)(=O)c1cccc(c1)C(=O)N(CCCC(C)(C)O)CCC2C (stereo not shown) [Compound 10, 6-(2,6-Dimethylphenyl)-12-(4-hydroxy-4-methyl-pentyl)-9-methyl-2,2-dioxo-2λ6-thia-3,5,12,19-tetrazatricyclo[12.3.1.14,8]nonadeca-1(18),4(19),5,7,14,16-hexaen-13-one]	
+++ (+++ is >60%)	< 1000	Cc1cccc(C)c1-c1cc2nc(n1)NS(=O)(=O)c1cccc(c1)C(=O)N(Cc1ccc(C(C)(C)O)cc1)CCC2C (stereo not shown) [Compound 16]	
+++ (+++ is >60%)	1000 to 3000	Cc1cccc(C)c1-c1cc2nc(n1)NS(=O)(=O)c1cccc(c1)C(=O)N(C)CCC2C (stereo not shown) [Compound 17]	
+++ (+++ is >60%)	1000 to 3000	Cc1cccc(C)c1-c1cc2nc(n1)NS(=O)(=O)c1cccc(c1)C(=O)N(Cc1ncccn1)CCC2C (stereo not shown) [Compound 18]	
++ (++ is 30-60%)	< 1000	Cc1cccc(C)c1-c1cc2nc(n1)NS(=O)(=O)c1cccc(c1)C(=O)N(C1CC3(CC3)C1)CCC2c1ccc(C(C)(C)C)cc1 (stereo not shown) [Compound 19]	
++ (++ is 30-60%)	< 1000	Cc1cccc(C)c1-c1cc2nc(n1)NS(=O)(=O)c1cccc(c1)C(=O)N(C1CC3(CC3)C1)CC2Cc1ccc(C(C)(C)C)cc1 (stereo not shown) [Compound 20]	
++ (++ is 30-60%)	< 1000	Cc1cccc(C)c1-c1cc2nc(n1)NS(=O)(=O)c1cccc(c1)C(=O)N(C1CC3(CC3)C1)CC[C@H]2c1ccc(C(C)(C)C)cc1 [Compound 22]	
++ (++ is 30-60%)		Cc1cccc(C)c1-c1cc2nc(n1)NS(=O)(=O)c1cccc(c1)C(=O)N(C1CC3(CC3)C1)CC[C@H]2c1ccc(C(C)(C)C)cc1 [Compound 23]	
++ (++ is 30-60%)	< 1000	Cc1cccc(C)c1-c1cc2nc(n1)NS(=O)(=O)c1cccc(c1)C(=O)N(C1CC3(CC3)C1)CCC21CC1 [Compound 41, 6-(2,6-Dimethylphenyl)-2,2-dioxo-12-spiro[2.3]hexan-5-yl-spiro[2λ6-thia-3,5,12,19-tetrazatricyclo[12.3.1.14,8]nonadeca-1(18),4(19),5,7,14,16-hexaene-9,1′-cyclopropane]-13-one]	
